According to a flash point compilation (Sun et al. 2020):
Counter-ions that a name gives are not always drawn.

`CC(=O)OC1CC2CCC1(C)C2(C)C` (centres undefined) [(1,7,7-trimethyl-2-bicyclo[2.2.1]heptanyl) acetate] gave a flash point of 88.00 °C. For `O=Cc1ccccc1` [benzaldehyde], the flash point was 64.00 °C. Compound `O=C(Cl)CCl` [2-chloroacetyl chloride] has a flash point of 100.00 °C. Compound `OCCCCCO` [pentane-1,5-diol] has a flash point of 129.00 °C. In the case of `CCCCCCCCCCCCCCCCCC(=O)OCCO` [2-hydroxyethyl octadecanoate], the flash point was 260.00 °C. `CCB(CC)CC` [triethylborane] showed a flash point of -36.00 °C. For `CC(C)OC=O` [propan-2-yl formate], the flash point was -6.00 °C. Compound `C=C(C)CCl` [3-chloro-2-methylprop-1-ene] has a flash point of -13.00 °C. `CCCCOCCOCCOCCO` [2-[2-(2-butoxyethoxy)ethoxy]ethanol] gave a flash point of 143.00 °C. In the case of `Nc1ccc(F)cc1F` [2,4-difluoroaniline], the flash point was 63.00 °C. Work on `CCCCc1ccccc1` [butylbenzene] yielded a flash point of 71.00 °C. In the case of `Cc1cccc([N+](=O)[O-])c1` [1-methyl-3-nitrobenzene], the flash point was 106.00 °C. For `Cc1ccc(C)cc1.Cc1cccc(C)c1.Cc1ccccc1C` [1,2-xylene;1,3-xylene;1,4-xylene], the flash point was 25.00 °C. For `c1ccc2c(c1)[nH]c1ccccc12` [9H-carbazole], the flash point was 220.00 °C. `CC(C)=CC(C)(C)C` [2,4,4-trimethylpent-2-ene] gave a flash point of 2.00 °C. With `CCCCOC(=O)CCCCCCCCC(=O)OCCCC` [dibutyl decanedioate] the flash point was 178.00 °C. With `C1=COCCC1` [3,4-dihydro-2H-pyran] the flash point was -18.00 °C. `CC(O)CBr` (centres undefined) [1-bromopropan-2-ol] showed a flash point of 54.00 °C. In the case of `O=[N+]([O-])c1ccc(O)cc1` [4-nitrophenol], the flash point was 192.00 °C. In the case of `OCCc1ccccc1` [2-phenylethanol], the flash point was 96.00 °C. In the case of `Nc1ccc([N+](=O)[O-])cc1Cl` [2-chloro-4-nitroaniline], the flash point was 205.00 °C. In the case of `CCOC(=O)CC(=O)OCC` [diethyl propanedioate], the flash point was 93.00 °C. Work on `CC(=O)Nc1ccc(C(=O)CCl)cc1` [N-[4-(2-chloroacetyl)phenyl]acetamide] yielded a flash point of 110.00 °C. For `Cc1ccccc1OP(=O)(Oc1ccccc1)Oc1ccccc1` [(2-methylphenyl) diphenyl phosphate], the flash point was 232.00 °C. Work on `C=C(C)C1CC=C(C)C(OC(C)=O)C1` (centres undefined) [(2-methyl-5-prop-1-en-2-ylcyclohex-2-en-1-yl) acetate] yielded a flash point of 97.00 °C. In the case of `O=[N+]([O-])c1ccc(Cl)cc1` [1-chloro-4-nitrobenzene], the flash point was 110.00 °C. In the case of `CC(C)COC(=O)C(C)C` [2-methylpropyl 2-methylpropanoate], the flash point was 37.00 °C. Work on `Cc1ccc(N)cc1C` [3,4-dimethylaniline] yielded a flash point of 98.00 °C. In the case of `NCCNCCO` [2-(2-aminoethylamino)ethanol], the flash point was 102.00 °C. Compound `CC(C)(C)c1ccc(OCC2CO2)cc1` (centres undefined) [2-[(4-tert-butylphenoxy)methyl]oxirane] has a flash point of 102.00 °C. Compound `FCC1CO1` (centres undefined) [2-(fluoromethyl)oxirane] has a flash point of 4.00 °C. `CCCC(=O)OC` [methyl butanoate] gave a flash point of 14.00 °C. For `O=C1CCCCC1` [cyclohexanone], the flash point was 44.00 °C. For `CCCCCCCCCCCO` [undecan-1-ol], the flash point was 93.00 °C. With `Cl/C=C/CCl` [(E)-1,3-dichloroprop-1-ene] the flash point was 35.00 °C. `O=C(O)CCCCCCCC(=O)O` [nonanedioic acid] showed a flash point of 210.00 °C. `C=CC(=O)Cl` [prop-2-enoyl chloride] showed a flash point of 14.00 °C. In the case of `FC(F)(F)c1cccc(Cl)c1` [1-chloro-3-(trifluoromethyl)benzene], the flash point was 47.00 °C. With `O=[N+]([O-])c1ccccc1Cl` [1-chloro-2-nitrobenzene] the flash point was 127.00 °C.
